Here are results for four molecules from PMC8658963, “Synthesis and Evaluation of Trypanocidal Activity of Chromane-Type Compounds and Acetophenones” (Molecules, 2021).

For data set [1], the system named is intracellular amastigotes of T. cruzi (Tulahuen strain transfected with the β-galactosidase gene). Description: Anti-trypanosomal activity, β-galactosidase readout in infected U937 macrophages, 72 h. In kind it is cell-based, Trypanosoma cruzi. Particulars: for Trypanocidal activity compared with the control drug BNZ: T. cruzi intracellular amastigotes, result in words; for SI (index of selectivity, IS = LC50/EC50): LC50 in U937 cells divided by EC50 against T. cruzi. On the procedure: This activity was carried out in intracellular amastigotes of T. cruzi (Tulahuen strain transfected with the β-galactosidase gene. Briefly, metacyclic trypomastigotes were cultured at 26 °C for ten days in a modified NNN (Novy−McNeal−Nicolle) medium. U937 cells were seeded in 96-well tissue culture plates at a density of 2.5 × 10^4 cells in 100 μL of complete RPMI-1640 medium/well and exposed for 24 h to phorbol myristate acetate (1 ng/mL) to induce transformation of monocytes into macrophages. Cells were infected with trypomastigotes (5 parasites per cell) and incubated for 24 h at 37 °C, 5% CO2. Wells were washed twice with warm phosphate buffer solution (PBS) to remove noninternalized parasites, and then were added 100 μL of complete RPMI-1640 medium and 100 μL of each concentration of compound (50, 12.5, 3.125 μM). BNZ, at the same concentrations, was used as internal control for trypanocidal activity (positive control), and nontreated cells as controls for infection (negative control). After 72 h of incubation 37 °C, 5% CO2, the viability of intracellular amastigotes was determined by measuring the β-galactosidase activity. For this, 100 μM of Chlorophenol red-β-D- galactopyranoside (CPRG), and 0.1% Nonidet P-40 was added to each well and incubated for 4 h at 37 °C, […] protected from light. After that, measurement β-galactosidase activity was measured at 570 nm on a Varioskan, Thermo spectrophotometer. Nonspecific absorbance was subtracted from the measurement. Infected cells exposed to benznidazole were used as controls for anti-trypanosomal activity. Determinations were done in triplicate with at least two independent experiments.

In data set [2] the test system is human monocyte cell line U-937 (ATCC CRL-1593.2). Description: Cytotoxic activity, MTT reduction assay, 72 h. Particulars: for Cytotoxicity level (grade): U937 cells, graded by LC50; for CC50: human, 72 h. The procedure: (§1) Cytotoxicity was evaluated in the human monocyte cell line U-937 (ATCC CRL-1593.2) at the exponential growth phase, adjusted at 1 × 10^5 cells/mL in complete RPMI-1640 medium (RPMI-1640 enriched with 200 mM L-glutamine, 10% inactivated fetal bovine serum (FBS) and 1% of a mixture of 10,000 IU/mL penicillin plus […] streptomycin). Then, in each well of a 96-well tissue culture plate were dispensed […] of cells plus […] of each compound (as one of six serials 1:2 dilution concentrations starting at 368 µM prepared in the same medium). Doxorubicin was included as an internal positive control under the same dilution pattern, starting at 18 µM whereas unexposed cells were used as negative controls. Afterward, cells were incubated for 72 h at 37 °C and 5% CO2. Cell viability was assayed by the MTT reduction assay according to the optical density (O.D) at 570 nm of the resulting reduction of formazan in a Varioskan Flash Multimode Reader (Thermo Scientific, Waltham, MA, USA). Nonspecific absorbance was corrected by subtracting the O.D of the blank solution that corresponded to complete RPMI-1640 medium. The assay was done in triplicate in at least two independent experiments.
(§2) The cytotoxicity was expressed as the medial lethal concentration (LC50), while the trypanocidal activity was defined as the median effective concentration (EC50) according to the percentage of inhibition of cells and parasites, respectively, as described elsewhere. Both LC50 and EC50 were calculated by the Probit analysis. […] Similarly, the trypanocidal activity was graded according to EC50 values, based on the hit criteria proposed by others into high when EC50 was lower than 10 μM, moderate when EC50 values were higher than 10 μM but lower than 50 μM and, low when EC50 was higher than 50 μM. The relation between cytotoxicity and trypanocidal activity was expressed as the index of selectivity (IS) that corresponded to the ratio when dividing the LC50 by the EC50.

The next data set in a line: in vitro. Particulars: human, Cytotoxicity (LC50). On the procedure: as §1, §2
[3] abbreviates: Trypanosoma cruzi, TULAHUEN, U-937, 72 h, intracellular amastigotes of T. cruzi Tulahuen in U937 macrophages, 72 h, average ± SD (SEM), read-out: Trypanocidal Activity (EC50).

As a reminder, the CC50 is the concentration that lowers cell viability or growth by half. High values mean better tolerance by the cells, low ones harm at low concentration.

Where two headings read alike, the source gives them in different places. Some results are limits rather than exact numbers.

In the case of `O=C(Cn1ccnc1[N+](=O)[O-])NCc1ccccc1` [BNZ, benznidazole, reference compound], the EC50 was 56.5 ± 1.5 µM in data set [1] (setting [3]) and 10 to 50 µM in data set [1] (Trypanosoma cruzi, TULAHUEN, U-937, T. cruzi intracellular amastigotes, graded by EC50, read-out: Trypanocidal activity (grade)). The “Cytotoxicity level (grade)” value in data set [2] is “no cytotoxicity”. Also, the CC50 at 72 h in the data set “in vitro” is greater than 768 µM.

For `CC(=O)c1cc(O)ccc1O` [Compound 6, 1-(2,5-Dihydroxyphenyl)ethan-1-one], the “Trypanocidal activity compared with the control drug BNZ” value in data set [1] is “much better trypanocidal activity than the control drug BNZ”. Also, in data set [2], the “Cytotoxicity level (grade)” value is “high (high when LC50 values were lower than 50 μM)” and the CC50 stood at 6.3 µM. For the same molecule, the half-maximal cytotoxic concentration (CC50) at 72 h in “in vitro” was less than 10 µM.

On to `CC(=O)c1c(O)cccc1O` [Compound 7, 1-(2,6-Dihydroxyphenyl)ethan-1-one], for which, in data set [1], the “SI (index of selectivity, IS = LC50/EC50)” value is 1.5 and the “Trypanocidal activity compared with the control drug BNZ” value was “much better trypanocidal activity than the control drug BNZ”. In data set [1] (setting [3]), the EC50 was less than 10 µM. The EC50 in data set [1] (intracellular amastigotes of T. cruzi Tulahuen in U937 macrophages, 72 h, average ± SD (SEM), read-out: Trypanocidal Activity (EC50)) was determined as 10.5 ± 0.6 µM. This molecule yielded a CC50 in data set [2] of 15.3 ± 1.9 µM. This molecule displayed a CC50 at 72 h in “in vitro” of 10.5 ± 0.6 µM.

Take `CC(=O)c1c(O)ccc(CC=C(C)C)c1O` [Compound 16, 1-(2,6-Dihydroxy-3-(3-methylbut-2-en-1-yl)phenyl)ethan-1-one]: in data set [1], the “SI (index of selectivity, IS = LC50/EC50)” value is reported as less than 2. Besides, the EC50 in data set [1] (Trypanosoma cruzi, TULAHUEN, U-937, 72 h, read-out: Trypanocidal Activity (EC50), intracellular amastigotes of T. cruzi Tulahuen in U937 macrophages, 72 h, average ± SD (SEM)) was greater than 4 µM. In data set [2], the “Cytotoxicity level (grade)” value is “high (high when LC50 values were lower than 50 μM)” and the CC50 was determined as 7.8 ± 3.1 µM. For the same molecule, the CC50 at 72 h in “in vitro” was less than 10 µM.
